These results are taken from patent US20090318496A1, “PREPARATION CONTAINING FIBRATE AGENT AND PROCESS FOR PRODUCING THE SAME” (ASKA Pharmaceutical Co., Ltd., priority 2006, published 2009).

Molecules are shown by their SMILES.

One series has as its system fibrinogen. Briefly: Amount of fibrinogen in sodium citrate-containing plasma of dogs, thrombin time method. Format: in vivo. As to conditions: dog sodium citrate plasma, Day 7-4 hr minus Day0-4 hr; FEN 20 mg/kg and/or PIT 2 mg/kg orally once a day for 7 days; average ± standard error. The method, then:
(§1) Four hours (Day0-4 hr) and 24 hours (Day0-24 hr) after feeding on the day before the administration start day, blood was collected from antebrachial radial veins, and serum and plasma containing sodium citrate (a citric sodium aqueous solution having a concentration of 3.8% by weight) were obtained. Then using the serum, the total cholesterol (TC), the triglyceride (TG), the phospholipid (PL), and the free fatty acid (NEFA) were quantitatively determined by a Toshiba automatic analyzer (manufactured by Toshiba Medical Systems Corporation, TBA-120FR). Moreover, using the sodium citrate-containing plasma, the amount of fibrinogen was quantitatively determined in accordance with the thrombin time method.
(§2) Incidentally, feeding was performed immediately after every administration.
(§3) Blood was collected after 4 hours of the seventh administration (Day7-4 hr). Using the same manner as in the case of the Day0-4 hr, serum and sodium citrate-containing plasma were obtained, and each of the examinations was performed.
The quantitation results were shown as “an average value±a standard error”. […] Incidentally, the obtained value from each test was regarded as a significant difference when the difference value was less than 5%.

The test system of series [1] is lipid and others in blood (TC, TG, PL, NEFA in serum). Briefly: Decrease of lipid in blood by combination use of fenofibrate and pitavastatin in dog (serum TC, TG, PL, NEFA). Format: in vivo. The method, then:
Dogs [female and male beagles (YAKUKEN BEAGLE) (11 male dogs and 2 female dogs, 27 to 73 months old)] were used for the examination. Incidentally, each of the dogs was accommodated in a separate bracket cage in a breeding room under the following conditions: a room temperature of 23±3° C., a humidity of 50±10%, a light period of 8:00 to 20:00, and a dark period of 20:00 to 8:00. Moreover, the dog was given 300 g of CD-5M (manufactured by CLEA Japan, Inc.) as a food once a day. Incidentally, the dog was freely allowed to have tap water.
as §1, §2, §3
Incidentally, the obtained value from each test was regarded as a significant difference when the difference value was less than 5%.
Incidentally, the relative index of each component was calculated based on the formula: (the average value of the concentration in the blood after the administration)/(the average value of the concentration in the blood before the administration).

The conditions of series [2]: pitavastatin 4 mg a day for 6 days vs combined with fenofibrate 160 mg a day or gemfibrozil 600 mg twice a day for 7 days; cited from earlier work.
The mark [3] stands for this setting: Day 7-4 hr minus Day0-4 hr, FEN 20 mg/kg and/or PIT 2 mg/kg orally once a day for 7 days, average ± standard error.
Setting [4] is: Day 7-4 hr, FEN 20 mg/kg and/or PIT 2 mg/kg orally for 7 days.

Consider `CC(C)OC(=O)C(C)(C)Oc1ccc(C(=O)c2ccc(Cl)cc2)cc1` [FEN, Fenofibrate], for which, in the series with fibrinogen, the ΔFibrinogen was 6 ± 22 mg/dL. Moreover, in series [1] (setting [3]), the ΔNEFA is recorded as −25 ± 20 μEq/L, the ΔPL is -71 ± 11 mg/dL and the ΔTG was -38.7 ± 16.3 mg/dL.

In the case of `O=C(O)C[C@H](O)C[C@H](O)/C=C/c1c(C2CC2)nc2ccccc2c1-c1ccc(F)cc1` [PIT, Pitavastatin], the “Drug interactions (pharmacokinetic parameter, concentration of unchanged pitavastatin in the blood)” value in series [2] is on record as “low degree of the drug interactions”. Moreover, the ΔFibrinogen with fibrinogen is 11 ± 11 mg/dL. In series [1] (setting [3]), the ΔNEFA was −6 ± 102 μEq/L, the ΔPL was -61 ± 9 mg/dL, the ΔTC was -25.0 ± 3.6 mg/dL and the ΔTG is -11.5 ± 4.8 mg/dL. Also, in series [1] (setting [4]), the “Relative index of NEFA (average concentration after/before administration)” value stood at 0.978, the “Relative index of PL (average concentration after/before administration)” value came to 0.795, the “Relative index of TC (average concentration after/before administration)” value was found to be 0.797 and the “Relative index of TG (average concentration after/before administration)” value is recorded as 0.791.
